Source: patent US20200121812A1 (Teva Pharmaceuticals International GmbH, priority 2015, published 2020)

Key:
dopamine in the striatum = test: Microdialysis in Sprague-Dawley rats; assay type: in vivo
[1] = cited from earlier work
[2] = test system: striatum (extracellular L-DOPA, DA and metabolites); test: Microdialysis in Wistar Rats (striatal dialysate levels after COMTi pretreatment); assay type: in vivo; details: COMTi 30 mg/kg p.o. 2 hours before SD-1077/Carbidopa 50/25 mg/kg p.o.; FIG. 4
[3] = test system: advanced PD patients with motor fluctuations; test: Clinical trial of opicapone add on to deuterated levodopa/carbidopa; assay type: in vivo, human; details: add on opicapone 20 mg once daily, 12 weeks; expected
[4] = cited from earlier work; remark: listed apart in the source
6-OHDA lesioned rats = details: cited from earlier work; for effectiveness on motor performance compared to L-DOPA: as disclosed in WO2014/122184A1
striatal dopamine = details: cited from earlier work; for increase and prolongation of the output of striatal dopamine: WO2004/056724 and WO2007/093450
Parkinson models = details: cited from earlier work
[5] = opicapone before levodopa (sequential dosing) compared to concomitant administration, US2014/0045900A1
[6] = plus carbidopa, compared to conventional levodopa plus carbidopa

**Q.** What does the source list for `N[C@@H](Cc1ccc(O)c(O)c1)C(=O)O` [levodopa]?
**A.** dopamine in the extracellular space in the striatal brain tissue (dopamine in the striatum; plus carbidopa): increase; half life ([1]; in vivo): about 1.5 hours; share of an oral dose that reaches the brain ([1]; oral): 1%

**Q.** With `Cc1c(Cl)c(C)[n+]([O-])c(Cl)c1-c1noc(-c2cc(O)c(O)c([N+](=O)[O-])c2)n1` [opicapone, 2,5-dichloro-3-[5-(3,4-dihydroxy-5-nitrophenyl]-1,2,4-oxadiazol-3-yl)-4,6-dimethylpyridine 1-oxide] as the molecule, how does the “extracellular striatal levels of deuterated L-DOPA (SD-1077)” value [2] read?
**A.** The value was “more effective than entacapone”.

**Q.** And the “increase of ON time without dyskinesia compared to placebo” value [3]?
**A.** The value was “about 40 min”.

**Q.** What about the levodopa exposure ([4]; Parkinson's patients) of the same molecule?
**A.** Its levodopa exposure is “increase levodopa exposure in a dose-dependent manner”.

**Q.** What about the motor outcomes ([4]; Parkinson's patients) of the same molecule?
**A.** The motor outcomes was “improve”.

**Q.** And the “food effect on rate and extent of absorption” value ([4]; US2014/0045900A1)?
**A.** Its value is “marked food effect”.

**Q.** What about the “levodopa Cmax” value [4, 5] of the same molecule?
**A.** The value was “decrease”.

**Q.** And the levodopa systemic exposure [4, 5]?
**A.** Its levodopa systemic exposure is “increase”.

**Q.** With `[2H]C([2H])(c1ccc(O)c(O)c1)[C@]([2H])(N)C(=O)O` [α,β,β-D3-L-DOPA, L-2-Amino-2,3,3-trideutero-3-(3,4-dihydroxyphenyl) propionic acid] as the molecule, how does the “effectiveness on motor performance compared to L-DOPA” value (shortened to “effectiveness … compared to L-DOPA”) (6-OHDA lesioned rats) read?
**A.** Its value is “as effective as L-DOPA at lower doses”.

**Q.** And the “increase and prolongation of the output of striatal dopamine” value (striatal dopamine)?
**A.** The value was “significantly more than L-DOPA”.

**Q.** And the “striatal dopamine levels compared to L-DOPA” value (striatal dopamine; in vivo)?
**A.** The value was “higher longer-lasting”.

**Q.** What about the “equi-effective dose compared to L-DOPA” value (Parkinson models; in vivo) of the same molecule?
**A.** The value was “about 60%”.

**Q.** And the “motor activity compared to L-DOPA” value (Parkinson models; several Parkinson models, Malmlof et al.)?
**A.** The value was “improved”.

**Q.** For `[2H]C([2H])(c1ccc(O)c(O)c1)[C@]([2H])(N)C(=O)O` [Deulevodopa], which central bioavailability (dopamine in the striatum; [6]) is on record?
**A.** Its central bioavailability is “increased”.

**Q.** What about the “half life of dopamine” value (dopamine in the striatum; [6]) of the same molecule?
**A.** The value was “about doubled”.

**Q.** Which hepatotoxicity ([4]; after market launch) does the source give for `Cc1ccc(C(=O)c2cc(O)c(O)c([N+](=O)[O-])c2)cc1` [tolcapone] here?
**A.** The hepatotoxicity was “several cases of hepatotoxicity”.

**Q.** What about the “crossing of the BBB” value ([4]; in vivo) of the same molecule?
**A.** The value was “crosses the BBB”.

**Q.** Which “effectiveness … compared to L-DOPA” value (6-OHDA lesioned rats) does the source give for `[2H][C@@H](c1ccc(O)c(O)c1)[C@]([2H])(N)C(=O)O` [α,β-D2-L-DOPA, S/S-2-amino-2,3-dideutero-3-(3,4-dihydroxyphenyl) propionic acid] here?
**A.** The value was “as effective as L-DOPA at lower doses”.

**Q.** What about the “increase and prolongation of the output of striatal dopamine” value (striatal dopamine) of the same molecule?
**A.** Its value is “significantly more than L-DOPA”.

**Q.** And the striatal dopamine concentrations (striatal dopamine; compared with L-DOPA and α,β,β-D3-L-DOPA)?
**A.** The striatal dopamine concentrations was “highest”.

**Q.** For `[2H]C([2H])(c1ccc(O)c(O)c1)[C@]([2H])(N)C(=O)O` [d3-L-DOPA], which “bioavailability of d3-dopamine in the striatum” value (dopamine in the striatum; 50 mg/kg ip, rats, compared to conventional L-DOPA (50 mg/kg ip), FIG. 1) is on record?
**A.** The value was “significantly increased”.

**Q.** Which “effectiveness … compared to L-DOPA” value (6-OHDA lesioned rats) does the source give for “L-2-amino-2,3,3*-trideutero-3-(3,4-dihydroxyphenyl) propionic acid [Composition 1]” here?
**A.** The value was “as effective as L-DOPA at lower doses”.

**Q.** What about the “observed dyskinesia side effects relative to levodopa” value (6-OHDA lesioned rats; rat model of Parkinson's disease, at equivalent motor effect, WO2014/122184A1) of the same molecule?
**A.** The value was 50%.

**Q.** What about the “dose yielding equivalent motor effect to levodopa, as % of the levodopa dose” value (6-OHDA lesioned rats; rat model of Parkinson's disease, WO2014/122184A1) of the same molecule?
**A.** Its value is 35%.
